The values below come from patent US11753407B2, “Compounds for treating spinal muscular atrophy” (PTC Therapeutics, Inc., priority 2012, dated 2023).

The test system of data set [1] is SMN2 minigene mRNA (SMN2-A minigene) in HEK293H cells. Kind of data set: SMN2 minigene mRNA splicing RT-qPCR assay in cultured cells. Type of data set: cell-based, human. The note with it: Homo sapiens, HEK293-H; concentration increasing full length SMN2 mRNA 1.5-fold relative to vehicle-treated cells; HEK293H cells with SMN2-A minigene, 24 hours, 7-point concentration data; read-out: EC1.5x for production of full length SMN2 mRNA. The gist of the method:
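HEK293H cells stably carrying SMN2-A minigene treated with compounds (7-point, 3.16-fold dilutions, duplicates) for 24 h at 37 °C. Full-length exon 7-containing minigene mRNA measured by multiplex RT-qPCR with GAPDH, normalized and expressed relative to vehicle (modified ΔΔCt); EC1.5× is concentration giving 1.5-fold increase.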
(Quantitative PCR measures a nucleic acid by following its amplification.)

Data set [2] concerns Smn protein in SMA patient fibroblast cells (GM03813). Nature of the data set: Smn protein assay in cultured cells (SMN HTRF). Type of data set: cell-based, human. The note with it: SMA patient fibroblast cells, 48 hours; for EC1.5x for Smn protein expression: 7-point concentration curve, SMN HTRF, concentration producing 1.5 times Smn protein vs DMSO vehicle control; for maximum fold (Fold) increase of Smn protein: 7-point concentration data, fold relative to vehicle control. The gist of the method: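 SMA patient fibroblasts (5,000/well, DMEM-10% FBS) treated 48 h at 37° C with 7-point, 3.16-fold compound series in triplicate; lysates read by SMN HTRF (665/620 nm ratio). Fold Smn increase over DMSO vehicle derived; EC1.5× is concentration giving 1.5-fold Smn, with maximum fold also reported.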
A general note: TR-FRET usually uses a lanthanide donor and a delayed reading to cut background.

In the case of `Cc1cn2cc(-c3cc(=O)n4cc(C5CCNCC5)ccc4n3)cc(C)c2n1` [Compound 607, 2-(2,8-dimethylimidazo[1,2-a]pyridin-6-yl)-7-(piperidin-4-yl)-4H-pyrido[1,2-a]pyrimidin-4-one], the melting point was in the range of 282 to 284 °C. In data set [1], the EC (1.5-fold increase) was below 0.1 µM. Besides, in data set [2], the “EC1.5x for Smn protein expression” value is recorded as “**** (an EC1.5x≤0.3 μM is indicated by four stars (****))” and the “maximum fold (Fold) increase of Smn protein” value (“maximum fold (Fold) increase” below) was “***** (a fold increase >1.65 is indicated by five stars (*****))”.

The compound `Cc1cn2nc(-c3cc(=O)n4cc(N5CCC(NCCO)CC5)cc(C)c4n3)cc2c(C)n1` [Compound 609, 2-(4,6-dimethylpyrazolo[1,5-a]pyrazin-2-yl)-7-{4-[(2-hydroxyethyl)amino]piperidin-1-yl}-9-methyl-4H-pyrido[1,2-a]pyrimidin-4-one] yielded a melting point of 221 to 232 °C. For the same compound, in data set [1], the EC (1.5-fold increase) is below 0.1 µM. Further, in data set [2], the “EC1.5x for Smn protein expression” value is “**** (an EC1.5x≤0.3 μM is indicated by four stars (****))” and the “maximum fold (Fold) increase” value is reported as “***** (a fold increase >1.65 is indicated by five stars (*****))”.

In turn, `CNC1CCN(c2cc(C)c3nc(-c4cc5c(C)nc(C)cn5n4)cc(=O)n3c2)CC1` [Compound 610, 2-(4,6-dimethylpyrazolo[1,5-a]pyrazin-2-yl)-9-methyl-7-[4-(methylamino)piperidin-1-yl]-4H-pyrido[1,2-a]pyrimidin-4-one] registered a melting point of 218 to 227 °C. In data set [1], the EC (1.5-fold increase) was below 0.1 µM. In data set [2], the “EC1.5x for Smn protein expression” value was “**** (an EC1.5x≤0.3 μM is indicated by four stars (****))” and the “maximum fold (Fold) increase” value is reported as “***** (a fold increase >1.65 is indicated by five stars (*****))”.

`Cc1cn2nc(-c3cc(=O)n4cc(N5CCC(NC(C)C)CC5)cc(C)c4n3)cc2c(C)n1` [Compound 611, 2-(4,6-dimethylpyrazolo[1,5-a]pyrazin-2-yl)-9-methyl-7-[4-(propan-2-ylamino)piperidin-1-yl]-4H-pyrido[1,2-a]pyrimidin-4-one] showed a melting point of 215 to 225 °C. The EC (1.5-fold increase) in data set [1] fell in the range of 0.3 to 1 µM. In data set [2], the “maximum fold (Fold) increase” value is “*** (a fold increase between >1.35 and ≤1.5 is indicated by three stars (***))”.

For the compound `CCN1CCC(c2ccc3nc(-c4ccc5nn(C)cc5c4)cc(=O)n3c2)CC1` [Compound 612, 7-(1-ethylpiperidin-4-yl)-2-(2-methyl-2H-indazol-5-yl)-4H-pyrido[1,2-a]pyrimidin-4-one], the melting point is 202 to 204 °C. The EC (1.5-fold increase) in data set [1] was below 0.1 µM. Moreover, in data set [2], the “EC1.5x for Smn protein expression” value is given as “**** (an EC1.5x≤0.3 μM is indicated by four stars (****))” and the “maximum fold (Fold) increase” value is on record as “***** (a fold increase >1.65 is indicated by five stars (*****))”.

The compound `Cn1cc2cc(-c3cc(=O)n4cc(C5CCN(CCO)CC5)ccc4n3)ccc2n1` [Compound 613, 7-[1-(2-hydroxyethyl)piperidin-4-yl]-2-(2-methyl-2H-indazol-5-yl)-4H-pyrido[1,2-a]pyrimidin-4-one] displayed a melting point of 170 to 172 °C. In data set [1], the EC (1.5-fold increase) was below 0.1 µM. Further, in data set [2], the “EC1.5x for Smn protein expression” value is “**** (an EC1.5x≤0.3 μM is indicated by four stars (****))” and the “maximum fold (Fold) increase” value is “***** (a fold increase >1.65 is indicated by five stars (*****))”.

Consider `Cc1cn2cc(-c3cc(=O)n4cc(C5CCN(C)CC5)ccc4n3)cc(C)c2n1` [Compound 614, 2-(2,8-dimethylimidazo[1,2-a]pyridin-6-yl)-7-(1-methylpiperidin-4-yl)-4H-pyrido[1,2-a]pyrimidin-4-one], for which the melting point lay in the range of 200 to 202 °C. Also, in data set [1], the EC (1.5-fold increase) is below 0.1 µM. Besides, in data set [2], the “EC1.5x for Smn protein expression” value is “**** (an EC1.5x≤0.3 μM is indicated by four stars (****))” and the “maximum fold (Fold) increase” value is “***** (a fold increase >1.65 is indicated by five stars (*****))”.

`CCN1CCC(c2ccc3nc(-c4cc(C)c5nc(C)cn5c4)cc(=O)n3c2)CC1` [Compound 615, 2-(2,8-dimethylimidazo[1,2-a]pyridin-6-yl)-7-(1-ethylpiperidin-4-yl)-4H-pyrido[1,2-a]pyrimidin-4-one] came in with a melting point of 202 to 204 °C. The EC (1.5-fold increase) in data set [1] is below 0.1 µM. For the same compound, in data set [2], the “EC1.5x for Smn protein expression” value is “**** (an EC1.5x≤0.3 μM is indicated by four stars (****))”; the “maximum fold (Fold) increase” value is “**** (a fold increase between >1.5 and ≤1.65 is indicated by four stars (****))”.

Consider `Cc1cn2cc(-c3cc(=O)n4cc(C5CCN(C(C)C)CC5)ccc4n3)cc(C)c2n1` [Compound 616, 2-(2,8-dimethylimidazo[1,2-a]pyridin-6-yl)-7-[1-(propan-2-yl)piperidin-4-yl]-4H-pyrido[1,2-a]pyrimidin-4-one], for which the melting point lay in the range of 242 to 244 °C. Also, the EC (1.5-fold increase) in data set [1] was below 0.1 µM. In data set [2], the “EC1.5x for Smn protein expression” value is “**** (an EC1.5x≤0.3 μM is indicated by four stars (****))” and the “maximum fold (Fold) increase” value is on record as “***** (a fold increase >1.65 is indicated by five stars (*****))”.

`CCCN1CCN(c2ccc3nc(-c4cc5c(CC)nc(C)cn5n4)cc(=O)n3c2)CC1` [Compound 618, 2-(4-ethyl-6-methylpyrazolo[1,5-a]pyrazin-2-yl)-7-(4-propylpiperazin-1-yl)-4H-pyrido[1,2-a]pyrimidin-4-one] returned a melting point of 243 to 245 °C. Also, in data set [1], the EC (1.5-fold increase) is below 0.1 µM. Moreover, in data set [2], the “EC1.5x for Smn protein expression” value is reported as “**** (an EC1.5x≤0.3 μM is indicated by four stars (****))” and the “maximum fold (Fold) increase” value is recorded as “***** (a fold increase >1.65 is indicated by five stars (*****))”.

Turning to `CCc1nc(C)cn2nc(-c3cc(=O)n4cc(N5CCN(C(C)C)CC5)ccc4n3)cc12` [Compound 619, 2-(4-ethyl-6-methylpyrazolo[1,5-a]pyrazin-2-yl)-7-[4-(propan-2-yl)piperazin-1-yl]-4H-pyrido[1,2-a]pyrimidin-4-one], the melting point is 255 to 258 °C. In data set [1], the EC (1.5-fold increase) fell in the range of 0.1 to 0.3 µM. Moreover, in data set [2], the “EC1.5x for Smn protein expression” value was “*** (an EC1.5× between >0.3 μM and ≤1 μM is indicated by three stars (***))”; the “maximum fold (Fold) increase” value is given as “***** (a fold increase >1.65 is indicated by five stars (*****))”.

The compound `CCc1nc(C)cn2nc(-c3cc(=O)n4cc(N5CCN(C6CC6)CC5)ccc4n3)cc12` [Compound 620, 7-(4-cyclopropylpiperazin-1-yl)-2-(4-ethyl-6-methylpyrazolo[1,5-a]pyrazin-2-yl)-4H-pyrido[1,2-a]pyrimidin-4-one] displayed a melting point of 258 to 260 °C. For the same compound, the EC (1.5-fold increase) in data set [1] lay within 0.3 to 1 µM. Moreover, in data set [2], the “EC1.5x for Smn protein expression” value was “** (an EC1.5× between >1 μM and ≤3 μM is indicated by two stars (**))”; the “maximum fold (Fold) increase” value was “*** (a fold increase between >1.35 and ≤1.5 is indicated by three stars (***))”.

As to `CCc1nc(C)cn2nc(-c3cc(=O)n4cc(N5CCN(C6CCC6)CC5)ccc4n3)cc12` [Compound 621, 7-(4-cyclobutylpiperazin-1-yl)-2-(4-ethyl-6-methylpyrazolo[1,5-a]pyrazin-2-yl)-4H-pyrido[1,2-a]pyrimidin-4-one], the melting point was 275 to 278 °C. For the same compound, the EC (1.5-fold increase) in data set [1] lay within 0.3 to 1 µM. In data set [2], the “EC1.5x for Smn protein expression” value is given as “**** (an EC1.5x≤0.3 μM is indicated by four stars (****))” and the “maximum fold (Fold) increase” value is “***** (a fold increase >1.65 is indicated by five stars (*****))”.

`CCc1nc(C)cn2nc(-c3cc(=O)n4cc(N5CCN(C6COC6)CC5)ccc4n3)cc12` [Compound 622, 2-(4-ethyl-6-methylpyrazolo[1,5-a]pyrazin-2-yl)-7-[4-(oxetan-3-yl)piperazin-1-yl]-4H-pyrido[1,2-a]pyrimidin-4-one] yielded a melting point of 205 to 208 °C. In addition, the EC (1.5-fold increase) in data set [1] lay within 1 to 3 µM. In addition, in data set [2], the “EC1.5x for Smn protein expression” value was “** (an EC1.5× between >1 μM and ≤3 μM is indicated by two stars (**))”; the “maximum fold (Fold) increase” value is “**** (a fold increase between >1.5 and ≤1.65 is indicated by four stars (****))”.

For `CCN1CCC2CN(c3ccc4nc(-c5cc6c(C)nc(C)cn6n5)cc(=O)n4c3)CCC21` (stereo not drawn) [Compound 623, 2-(4,6-dimethylpyrazolo[1,5-a]pyrazin-2-yl)-7-(1-ethyloctahydro-5H-pyrrolo[3,2-c]pyridin-5-yl)-4H-pyrido[1,2-a]pyrimidin-4-one], the melting point is 176 to 178 °C. For the same compound, in data set [1], the EC (1.5-fold increase) was below 0.1 µM. In data set [2], the “EC1.5x for Smn protein expression” value is reported as “**** (an EC1.5x≤0.3 μM is indicated by four stars (****))” and the “maximum fold (Fold) increase” value is listed as “***** (a fold increase >1.65 is indicated by five stars (*****))”.

Compound `Cc1cn2nc(-c3cc(=O)n4cc(N5CCC6C(CCN6CCO)C5)ccc4n3)cc2c(C)n1` (stereo not drawn) [Compound 624, 2-(4,6-dimethylpyrazolo[1,5-a]pyrazin-2-yl)-7-[1-(2-hydroxyethyl)octahydro-5H-pyrrolo[3,2-c]pyridin-5-yl]-4H-pyrido[1,2-a]pyrimidin-4-one] displayed a melting point of 184 to 187 °C. Besides, in data set [1], the EC (1.5-fold increase) was below 0.1 µM. In data set [2], the “EC1.5x for Smn protein expression” value is “**** (an EC1.5x≤0.3 μM is indicated by four stars (****))” and the “maximum fold (Fold) increase” value is “***** (a fold increase >1.65 is indicated by five stars (*****))”.

Broadly, the melting point is the temperature, or range, at which the solid turns liquid.
